# Source: patent US20210024542A1 (Torcept Therapeutics, Inc., priority 2018, published 2021)
# Where two headings read alike, the source gives them in different places.
# Assays:
# Format in all cases: cell-based, human
# Hs 729 = experiment: OncoPanel cell proliferation assay, Hs 729; details: for Relative cell count (%) Mean: Hs 729
# Experimental: (§1) Cells were grown in RPMI 1640, 10% FBS, 2 mM L-alanyl-L-glutamine, 1 mM Na pyruvate, or a special medium. Cells were seeded into 384-well plates and incubated in a humidified atmosphere of 5% CO2 at 37° C. Compounds were added the day following cell seeding. At the same time, a time zero untreated cell plate was generated. After a 3-day incubation period, cells were fixed and stained to allow fluorescence imaging of nuclei. Compounds (1 mM stock solutions) were serially diluted in half-log steps from the highest test concentration ([…]), and assayed over 10 concentrations with a maximum assay concentration of 0.1% DMSO. Automated fluorescence microscopy was carried out using a Molecular Devices ImageXpress Micro XL high-content imager, and images were collected with a 4× objective. 16-bit TIFF images were acquired and analyzed with MetaXpress 5.1.0.41 software.
# (§2) Cell proliferation was measured by the fluorescence intensity of an incorporated nuclear dye. The output is referred to as the relative cell count, where the measured nuclear intensity is transformed to percent of control (POC) using the following formula: […]
# (§3) Cellular response parameters were calculated using nonlinear regression to a sigmoidal single-site dose response model:
# (§4) Where y is a response measured at concentration x, A and B are the lower and upper limits of the response, C is the concentration at the response midpoint (EC50), and D is the Hill Slope (Ref. 1).
# (§5) EC50 is the test compound concentration at the curve inflection point or half the effective response (parameter C of the fitted curve solution). GI50 is the concentration needed to reduce the observed growth by half (midway between the curve maximum and the time zero value). “Cell Count Activity Area” is an estimate of the integrated area above the curve (Barretina, et al. The Cancer Cell Line Encyclopedia enables predictive modelling of anticancer drug sensitivity. Nature 483: 603-607). […] In rare instances, values <0 or >10 may be observed. […] Curve-fitting, calculations, and report generation was performed using a custom data reduction engine and MathIQ based software (AIM).
# 786-O = experiment: OncoPanel cell proliferation assay, 786-O; details: for Relative cell count (%) Mean: 786-0
# Experimental: as §1, §2, §3, §4, §5
# Hs 852.T = experiment: OncoPanel cell proliferation assay, Hs 852.T
# Experimental: as §1, §2, §3, §4, §5
# A431 = experiment: OncoPanel cell proliferation assay, A431; details: for Relative cell count (%) Mean: A431
# Experimental: as §1, §2, §3, §4, §5
# CRO-AP2 = experiment: OncoPanel cell proliferation assay, CRO-AP2; details: for Relative cell count (%) Mean: CRO-AP2
# Experimental: as §1, §2, §3, §4, §5
# CML-T1 = experiment: OncoPanel cell proliferation assay, CML-T1; details: for Relative cell count (%) Mean: CML-T1
# Experimental: as §1, §2, §3, §4, §5
# SK-MEL-28 = experiment: OncoPanel cell proliferation assay, SK-MEL-28; details: for Relative cell count (%) Mean: SK-MEL-28
# Experimental: as §1, §2, §3, §4, §5
smiles,measurement,setting,value
"CO[C@H]1C[C@@H]2CC[C@@H](C)[C@@](O)(O2)C(=O)C(=O)N2CCCC[C@H]2C(=O)O[C@H]([C@H](C)C[C@@H]2C[C@@H]3C[C@H]2C[C@H]3O)CC(=O)[C@H](C)/C=C(\C)[C@@H](O)[C@@H](OC)C(=O)[C@H](C)C[C@H](C)/C=C/C=C/C=C/1C [Formula I, 37R-hydroxynorbornylrapamycin]",EC50,"Hs 729; Homo sapiens, 72 h, Hs 729, 3-day incubation, read-out: Cell Count EC50",14.1 nM
same,GI50,"Hs 729; Homo sapiens, 72 h, Hs 729, 3-day incubation, read-out: Cell Count GI50",17.3 nM
same,IC50,"Hs 729; Homo sapiens, 72 h, Hs 729, 3-day incubation, read-out: Cell Count IC50",> 1000 nM
same,Cell Count Activity Area,"Hs 729; Hs 729, scale 0-10",1.80
same,Relative cell count (%) Mean,Hs 729; 1.00E+00 microM,65.5%
same,Relative cell count (%) Mean,Hs 729; 1.00E−01 microM,69.6%
same,Relative cell count (%) Mean,Hs 729; 1.00E−02 microM,79.6%
same,Relative cell count (%) Mean,Hs 729; 1.00E−03 microM,87.3%
same,Relative cell count (%) Mean,Hs 729; 1.01E−04 microM,95.7%
same,Relative cell count (%) Mean,Hs 729; 3.16E−01 microM,63.1%
same,Relative cell count (%) Mean,Hs 729; 3.17E−02 microM,76.9%
same,Relative cell count (%) Mean,Hs 729; 3.17E−03 microM,79.1%
same,Relative cell count (%) Mean,Hs 729; 3.18E−04 microM,87.7%
same,Relative cell count (%) Mean,Hs 729; 3.18E−05 microM,91.5%
same,Relative cell count (%) Mean,786-O; 1.00E+00 microM,37.4%
same,Relative cell count (%) Mean,786-O; 1.00E−01 microM,44.8%
same,Relative cell count (%) Mean,786-O; 1.00E−02 microM,52.1%
same,Relative cell count (%) Mean,786-O; 1.00E−03 microM,61.1%
same,Relative cell count (%) Mean,786-O; 1.01E−04 microM,88.5%
same,Relative cell count (%) Mean,786-O; 3.16E−01 microM,43.9%
same,Relative cell count (%) Mean,786-O; 3.17E−02 microM,46.5%
same,Relative cell count (%) Mean,786-O; 3.17E−03 microM,60.0%
same,Relative cell count (%) Mean,786-O; 3.18E−04 microM,77.4%
same,Relative cell count (%) Mean,786-O; 3.18E−05 microM,100.6%
same,Cell Count Activity Area,"786-O; 786-O, scale 0-10",4.43
same,EC50,"786-O; Homo sapiens, 786-0, 72 h, 786-O, 3-day incubation, read-out: Cell Count EC50",0.395 nM
same,GI50,"786-O; Homo sapiens, 786-0, 72 h, 786-O, 3-day incubation, read-out: Cell Count GI50",1.91 nM
same,IC50,"786-O; Homo sapiens, 786-0, 72 h, 786-O, 3-day incubation, read-out: Cell Count IC50",4.07 nM
same,Relative cell count (%) Mean,Hs 852.T; 1.00E+00 microM,67.7%
same,Relative cell count (%) Mean,Hs 852.T; 1.00E−01 microM,82.5%
same,Relative cell count (%) Mean,Hs 852.T; 1.00E−02 microM,92.9%
same,Relative cell count (%) Mean,Hs 852.T; 1.00E−03 microM,96.5%
same,Relative cell count (%) Mean,Hs 852.T; 1.01E−04 microM,106.1%
same,Relative cell count (%) Mean,Hs 852.T; 3.16E−01 microM,78.0%
same,Relative cell count (%) Mean,Hs 852.T; 3.17E−02 microM,87.7%
same,Relative cell count (%) Mean,Hs 852.T; 3.17E−03 microM,100.5%
same,Relative cell count (%) Mean,Hs 852.T; 3.18E−04 microM,105.1%
same,Relative cell count (%) Mean,Hs 852.T; 3.18E−05 microM,99.0%
same,EC50,"Hs 852.T; Homo sapiens, 72 h, 3-day incubation, read-out: Cell Count EC50",335 nM
same,GI50,"Hs 852.T; Homo sapiens, 72 h, 3-day incubation, read-out: Cell Count GI50",803 nM
same,IC50,"Hs 852.T; Homo sapiens, 72 h, 3-day incubation, read-out: Cell Count IC50",> 1000 nM
same,Cell Count Activity Area,Hs 852.T; scale 0-10,1.22
same,Cell Count Activity Area,"A431; A431, scale 0-10",1.96
same,Relative cell count (%) Mean,A431; 1.00E+00 microM,64.2%
same,Relative cell count (%) Mean,A431; 1.00E−01 microM,72.8%
same,Relative cell count (%) Mean,A431; 1.00E−02 microM,84.2%
same,Relative cell count (%) Mean,A431; 1.00E−03 microM,93.5%
same,Relative cell count (%) Mean,A431; 1.01E−04 microM,101.0%
same,Relative cell count (%) Mean,A431; 3.16E−01 microM,66.5%
same,Relative cell count (%) Mean,A431; 3.17E−02 microM,78.2%
same,Relative cell count (%) Mean,A431; 3.17E−03 microM,84.4%
same,Relative cell count (%) Mean,A431; 3.18E−04 microM,91.9%
same,Relative cell count (%) Mean,A431; 3.18E−05 microM,104.6%
same,EC50,"A431; Homo sapiens, A-431, 72 h, A431, 3-day incubation, read-out: Cell Count EC50",14.3 nM
same,GI50,"A431; Homo sapiens, A-431, 72 h, A431, 3-day incubation, read-out: Cell Count GI50",> 1000 nM
same,IC50,"A431; Homo sapiens, A-431, 72 h, A431, 3-day incubation, read-out: Cell Count IC50",> 1000 nM
same,EC50,"A431; Homo sapiens, A-431, Table 4 summary, A431, Skin, Head/Neck, read-out: EC50",14 nM
same,Cell Count Activity Area,"CRO-AP2; CRO-AP2, scale 0-10",5.61
same,Relative cell count (%) Mean,CRO-AP2; 1.00E+00 microM,23.3%
same,Relative cell count (%) Mean,CRO-AP2; 1.00E−01 microM,24.5%
same,Relative cell count (%) Mean,CRO-AP2; 1.00E−02 microM,27.9%
same,Relative cell count (%) Mean,CRO-AP2; 1.00E−03 microM,38.7%
same,Relative cell count (%) Mean,CRO-AP2; 1.01E−04 microM,89.0%
same,Relative cell count (%) Mean,CRO-AP2; 3.16E−01 microM,23.3%
same,Relative cell count (%) Mean,CRO-AP2; 3.17E−02 microM,23.6%
same,Relative cell count (%) Mean,CRO-AP2; 3.17E−03 microM,29.7%
same,Relative cell count (%) Mean,CRO-AP2; 3.18E−04 microM,59.0%
same,Relative cell count (%) Mean,CRO-AP2; 3.18E−05 microM,93.4%
same,EC50,"CRO-AP2; Homo sapiens, 72 h, CRO-AP2, 3-day incubation, read-out: Cell Count EC50",0.319 nM
same,GI50,"CRO-AP2; Homo sapiens, 72 h, CRO-AP2, 3-day incubation, read-out: Cell Count GI50",0.434 nM
same,IC50,"CRO-AP2; Homo sapiens, 72 h, CRO-AP2, 3-day incubation, read-out: Cell Count IC50",0.536 nM
same,Cell Count Activity Area,"CML-T1; CML-T1, scale 0-10",4.54
same,Relative cell count (%) Mean,CML-T1; 1.00E+00 microM,36.5%
same,Relative cell count (%) Mean,CML-T1; 1.00E−01 microM,42.6%
same,Relative cell count (%) Mean,CML-T1; 1.00E−02 microM,46.7%
same,Relative cell count (%) Mean,CML-T1; 1.00E−03 microM,55.6%
same,Relative cell count (%) Mean,CML-T1; 1.01E−04 microM,83.6%
same,Relative cell count (%) Mean,CML-T1; 3.16E−01 microM,33.1%
same,Relative cell count (%) Mean,CML-T1; 3.17E−02 microM,42.3%
same,Relative cell count (%) Mean,CML-T1; 3.17E−03 microM,49.5%
same,Relative cell count (%) Mean,CML-T1; 3.18E−04 microM,65.3%
same,Relative cell count (%) Mean,CML-T1; 3.18E−05 microM,90.6%
same,EC50,"CML-T1; Homo sapiens, 72 h, CML-T1, 3-day incubation, read-out: Cell Count EC50",0.317 nM
same,GI50,"CML-T1; Homo sapiens, 72 h, CML-T1, 3-day incubation, read-out: Cell Count GI50",0.998 nM
same,IC50,"CML-T1; Homo sapiens, 72 h, CML-T1, 3-day incubation, read-out: Cell Count IC50",2.51 nM
same,EC50,"SK-MEL-28; Homo sapiens, 72 h, SK-MEL-28, 3-day incubation, read-out: Cell Count EC50",0.194 nM
same,GI50,"SK-MEL-28; Homo sapiens, 72 h, SK-MEL-28, 3-day incubation, read-out: Cell Count GI50",> 1000 nM
same,IC50,"SK-MEL-28; Homo sapiens, 72 h, SK-MEL-28, 3-day incubation, read-out: Cell Count IC50",> 1000 nM
same,EC50,"SK-MEL-28; Homo sapiens, Table 4 summary, SK-MEL-28, Melanoma, read-out: EC50",0.19 nM
same,Cell Count Activity Area,"SK-MEL-28; SK-MEL-28, scale 0-10",1.87
same,Relative cell count (%) Mean,SK-MEL-28; 1.00E−01 microM,65.6%
same,Relative cell count (%) Mean,SK-MEL-28; 1.00E−02 microM,71.4%
same,Relative cell count (%) Mean,SK-MEL-28; 1.00E−03 microM,75.0%
same,Relative cell count (%) Mean,SK-MEL-28; 1.01E−04 microM,88.2%
same,Relative cell count (%) Mean,SK-MEL-28; 3.17E−02 microM,68.9%
same,Relative cell count (%) Mean,SK-MEL-28; 3.17E−03 microM,70.8%
same,Relative cell count (%) Mean,SK-MEL-28; 3.18E−04 microM,79.6%
same,Relative cell count (%) Mean,SK-MEL-28; 3.18E−05 microM,93.8%
